Data as given in US10085986B2, “Pyrimidinone compounds and their use” (Takeda Pharmaceutical Company Limited, priority 2011, dated 2018).

Target: Human DAAO Enzyme (Homo sapiens (Human), UniProt P14920)
Assay: In vitro DAAO enzyme assay (Amplex Red detection of H2O2 from D-Serine)
Type: biochemical
Details: inhibition of DAAO activity in the presence of 10 mM D-Serine; 60 minutes at 25° C.
Protocol: The functional activity of compounds inhibiting the DAAO enzyme was determined by utilizing the co-product of the catalysis of D-Serine, H2O2 which can be quantitatively measured using the Amplex Red (Invitrogen) detection. Amplex® Red reagent is a colorless substrate that reacts with hydrogen peroxide (H2O2) with a 1:1 stoichiometry in the presence of […] to produce highly fluorescent resorufin (excitationemission maxima=570/585 nm). The changes in fluorescence were monitored by a fluorescence plate reader, Envision (Perkin Elmer) and increases in DAAO activity were readily detected upon addition of D-Serine and suppression of this response observed with the application of test compounds.
The Km of D-Serine was measured for each enzyme batch to maintain consistency; this Km was used in subsequent assays.
On the day of the assay compounds were serially diluted in DMSO before being diluted 1:20 with assay buffer (20 mM Tris ph 7.4). A 5 μl portion of assay buffer was added to the wells of a 384 clear base black walled plate (Corning), 5 μl of diluted compound was then added via automated plate to plate transfer using the Bravo liquid handler (Agilent technologies) followed by 5 μl of human DAAO enzyme and then 5 μl D-Serine 50 mM was added to all but the negative control wells (final concentration of 10 mM). Finally 5 μl Amplex red reagent (Invitrogen) was added to all wells as per manufacturer's protocol. The plate was incubated for 60 minutes in the dark at 25° C. and the fluorescence in each well was measured in the Envision plate reader.
The IC50 values for compounds were determined from ten point half log scale dose-response studies and represent the concentration of compound required to […] 50% inhibition of DAAO activity in the presence of 10 mM D-Serine. Concentration response curves were generated using the average of duplicate wells for each data point and analyzed using nonlinear regression and four parameter curve fit.

Human DAAO Enzyme, sequence (P14920 whole entry): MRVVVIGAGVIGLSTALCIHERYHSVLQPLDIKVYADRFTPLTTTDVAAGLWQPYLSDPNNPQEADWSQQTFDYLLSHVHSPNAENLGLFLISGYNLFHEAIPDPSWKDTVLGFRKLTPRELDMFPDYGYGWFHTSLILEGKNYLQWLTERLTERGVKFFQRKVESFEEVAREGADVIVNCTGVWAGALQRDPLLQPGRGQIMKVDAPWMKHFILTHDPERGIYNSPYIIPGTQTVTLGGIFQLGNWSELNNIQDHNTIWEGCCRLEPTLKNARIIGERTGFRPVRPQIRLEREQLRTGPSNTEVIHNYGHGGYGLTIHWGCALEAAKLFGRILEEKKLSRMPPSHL

Question: Which IC50 does the source give for `O=c1[nH]c(SCc2cccc(Cl)c2)ncc1O` [Example 1, 2-(3-Chlorobenzylthio)-5-hydroxypyrimidin-4(3H)-one] here?
Answer: 120 nM

Question: For `O=c1[nH]c(SCc2ccccc2)ncc1O` [Example 2, 2-(Benzylsulfanyl)-5-hydroxypyrimidin-4(3H)-one], which IC50 is on record?
Answer: 230 nM

Question: With `O=c1[nH]c(SCc2ccc(Cl)cc2)ncc1O` [Example 4, 2-[(4-Chlorobenzyl)sulfanyl]-5-hydroxypyrimidin-4(3H)-one] as the compound, how does the IC50 read?
Answer: 220 nM

Question: Which IC50 does the source give for `O=c1[nH]c(SCc2ccc3ccccc3c2)ncc1O` [Example 5, 5-Hydroxy-2-[(naphthalen-2-ylmethyl)sulfanyl]pyrimidin-4(3H)-one] here?
Answer: 120 nM

Question: Which IC50 does the source give for `O=c1[nH]c(SCc2cccc(F)c2)ncc1O` [Example 6, 2-[(3-Fluorobenzyl)sulfanyl]-5-hydroxypyrimidin-4(3H)-one] here?
Answer: 170 nM

Question: `COc1cccc(CSc2ncc(O)c(=O)[nH]2)c1` [Example 9, 5-Hydroxy-2-[(3-methoxybenzyl)sulfanyl]pyrimidin-4(3H)-one] was tested. Which IC50 did it give?
Answer: 160 nM

Question: For `O=c1[nH]c(SCc2cccc(C(F)(F)F)c2)ncc1O` [Example 10, 5-Hydroxy-2-{[3-(trifluoromethyl)benzyl]sulfanyl}pyrimidin-4(3H)-one], which IC50 is on record?
Answer: 150 nM

Question: How did the IC50 turn out when `O=c1[nH]c(SCc2cc(F)cc(Cl)c2)ncc1O` [Example 11, 2-[(3-Chloro-5-fluorobenzyl)sulfanyl]-5-hydroxypyrimidin-4(3H)-one] was run?
Answer: 150 nM

Question: Which IC50 does the source give for `Cc1nc(-c2cccc(CSc3ncc(O)c(=O)[nH]3)c2)no1` [Example 12, 5-Hydroxy-2-{[3-(5-methyl-1,2,4-oxadiazol-3-yl)benzyl]-sulfanyl}-pyrimidin-4(3H)-one] here?
Answer: 500 nM

Question: For `CC(Sc1ncc(O)c(=O)[nH]1)c1ccccc1` (stereo not shown) [Example 14, 5-Hydroxy-2-[(1-phenylethyl)sulfanyl]pyrimidin-4(3H)-one], which IC50 is on record?
Answer: 1200 nM

Question: How did the IC50 turn out when `O=c1[nH]c(SCc2cccc3c2OCCO3)ncc1O` [Example 16, 2-[(2,3-Dihydro-1,4-benzodioxin-5-ylmethyl)sulfanyl]-5-hydroxypyrimidin-4(3H)-one] was run?
Answer: 540 nM

Question: Which IC50 does the source give for `O=c1[nH]c(SCc2cccc(OC(F)F)c2)ncc1O` [Example 18, 2-(3-(Difluoromethoxy)benzylthio)-5-hydroxypyrimidin-4(3H)-one] here?
Answer: 190 nM

Question: `O=c1[nH]c(SCc2cccnc2)ncc1O` [Example 20, 5-Hydroxy-2-(pyridin-3-ylmethylthio)pyrimidin-4(3H)-one] was tested. Which IC50 did it give?
Answer: 470 nM

Question: How did the IC50 turn out when `Cc1cc(CSc2ncc(O)c(=O)[nH]2)n(C)n1` [Example 21, 2-((1,3-Dimethyl-1H-pyrazol-5-yl)methylthio)-5-hydroxypyrimidin-4(3H)-one] was run?
Answer: 1600 nM

Question: Which IC50 does the source give for `O=c1[nH]c(SCc2ccc3nccn3c2)ncc1O` [Example 26, 5-Hydroxy-2-[(imidazo[1,2-a]pyridin-6-ylmethyl)sulfanyl]-pyrimidin-4(3H)-one] here?
Answer: 740 nM

Question: `O=c1[nH]c(CSc2ccccc2)ncc1O` [Example 30, 5-Hydroxy-2-[(phenylsulfanyl)methyl]pyrimidin-4(3H)-one] was tested. Which IC50 did it give?
Answer: 2800 nM

Question: With `O=c1[nH]c(COc2ccccc2)ncc1O` [Example 31, 5-Hydroxy-2-(phenoxymethyl)pyrimidin-4(3H)-one] as the compound, how does the IC50 read?
Answer: 3200 nM

Question: `O=c1[nH]c(CCc2ccccc2)ncc1O` [Example 33, 5-Hydroxy-2-(2-phenylethyl)pyrimidin-4(3H)-one] was tested. Which IC50 did it give?
Answer: 1200 nM

Question: With `O=c1[nH]c(SCc2ccccc2)nc(C(F)(F)F)c1O` [Example 34, 2-(Benzylsulfanyl)-5-hydroxy-6-(trifluoromethyl)pyrimidin-4(3H)-one] as the compound, how does the IC50 read?
Answer: 2700 nM
